Assay results published in patent EP4722212A1, “NOVEL COMPOUND FOR INHIBITING PROTEIN KINASES AND PHARMACEUTICAL COMPOSITION COMPRISING SAME” (Magicbullettherapeutics Co., Ltd., priority 2023, dated 2024).

Columns and labels:
ACK1 = biological target: T1, ACK1 (Homo sapiens, UniProt Q07912); assay: Enzyme activity inhibition (Reaction Biology); assay type: biochemical
T1 construct: purchased Reaction Biology (RBC)
Protocol: (§1) [* <10 nM: A, <100 nM: B, >100 nM: C]. [Table 7]

BMX = biological target: T2, BMX (Homo sapiens, UniProt P51813); assay: Enzyme activity inhibition (Reaction Biology); assay type: biochemical
T2 construct: purchased Reaction Biology (RBC)
T2 sequence (P51813 1-675): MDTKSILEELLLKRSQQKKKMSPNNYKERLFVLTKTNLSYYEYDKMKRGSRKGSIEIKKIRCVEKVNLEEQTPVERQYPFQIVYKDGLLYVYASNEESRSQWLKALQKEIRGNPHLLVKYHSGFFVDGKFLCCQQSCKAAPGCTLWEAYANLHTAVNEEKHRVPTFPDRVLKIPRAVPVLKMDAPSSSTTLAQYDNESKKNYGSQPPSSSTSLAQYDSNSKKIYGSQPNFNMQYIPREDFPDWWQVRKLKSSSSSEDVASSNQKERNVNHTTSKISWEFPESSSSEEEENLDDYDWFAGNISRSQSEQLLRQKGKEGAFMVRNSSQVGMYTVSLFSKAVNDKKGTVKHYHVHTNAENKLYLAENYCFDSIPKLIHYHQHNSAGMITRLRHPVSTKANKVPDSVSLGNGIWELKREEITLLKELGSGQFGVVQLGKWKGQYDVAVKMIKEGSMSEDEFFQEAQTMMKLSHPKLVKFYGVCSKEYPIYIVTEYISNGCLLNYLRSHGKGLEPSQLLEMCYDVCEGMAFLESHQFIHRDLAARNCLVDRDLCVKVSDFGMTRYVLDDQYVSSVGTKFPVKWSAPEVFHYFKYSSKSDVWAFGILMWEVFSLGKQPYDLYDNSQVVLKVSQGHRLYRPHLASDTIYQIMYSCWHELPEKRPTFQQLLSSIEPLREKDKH
Protocol: as §1

Src = biological target: T3, Src (Homo sapiens, UniProt P12931); assay: Enzyme activity inhibition (Reaction Biology); assay type: biochemical
T3 construct: purchased Reaction Biology (RBC)
T3 sequence (P12931 whole entry): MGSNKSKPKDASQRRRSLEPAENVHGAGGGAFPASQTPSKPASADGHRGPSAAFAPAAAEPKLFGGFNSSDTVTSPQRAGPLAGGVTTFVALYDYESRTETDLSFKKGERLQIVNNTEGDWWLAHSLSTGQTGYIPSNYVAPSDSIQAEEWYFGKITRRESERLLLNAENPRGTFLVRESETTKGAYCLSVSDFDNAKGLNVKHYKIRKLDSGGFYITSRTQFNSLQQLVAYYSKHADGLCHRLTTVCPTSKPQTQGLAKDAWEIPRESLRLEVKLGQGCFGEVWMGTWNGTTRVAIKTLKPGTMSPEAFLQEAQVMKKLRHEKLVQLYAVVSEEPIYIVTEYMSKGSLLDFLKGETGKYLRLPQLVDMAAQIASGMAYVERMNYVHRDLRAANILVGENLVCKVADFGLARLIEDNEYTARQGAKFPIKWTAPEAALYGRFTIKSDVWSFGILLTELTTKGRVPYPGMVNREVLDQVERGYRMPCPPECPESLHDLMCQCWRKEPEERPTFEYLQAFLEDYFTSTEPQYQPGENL
Protocol: as §1

A172 = assay: Cell line inhibition analysis (CCK-8, 72 h); assay type: cell-based; conditions: Homo sapiens, A 172; read-out: Cell growth inhibition GI50 A172
Protocol: (§2) C4-2B and 22Rv1 cells were purchased from ATCC and cultured according to the manufacturer's instructions. The cells were seeded in 96-well plates at 7×10^3cells/100 µl/well and allowed to attach for one day. After removing the culture medium, 90 µl/well of fresh culture medium was added, followed by addition of 10 µl/well of culture medium containing compounds at nine concentrations (0.076-500 µM) serially diluted 3-fold and DMSO control to achieve final concentrations of 0-50 µM, and then cultured for 72 hours in a 37 °C CO2 incubator. Cell proliferation after 72 hours was assessed by adding 10 µl/well of CCK-8 solution, orbital shaking for 30 seconds, then incubating at 37 °C CO2 incubator for 2 hours and measuring absorbance at 450 nm using a microplate reader. The measured absorbance values were corrected by subtracting the absorbance of wells containing only culture medium and CCK-8 solution, and GI50 values were calculated using GraphPad Prism 8 software.
(§3) Meanwhile, in a separate 96-well plate, cells were seeded at 7 × 10^3 cells/100 µl/well, allowed to attach for one day, CCK-8 solution was added, and absorbance was measured to establish the 'Growth (%) = 0' value.
(§4) Furthermore, experiments were conducted on A172, A549, HCI-H460, AsPC-1, MIA-Paca-2, DLD-1, HCT-116, HT-29, SW480, SW620, MDA-MB-231, and SKOV3 cell lines using the same method, with results shown in Tables 9 and 10 below [* <1 µM: A, <5 µM: B, <10 µM: C, >10 µM: D].

A549 = assay: Cell line inhibition analysis (CCK-8, 72 h); assay type: cell-based; conditions: Homo sapiens, read-out: Cell growth inhibition GI50 A549
Protocol: as §2, §3, §4

AsPC-1 = assay: Cell line inhibition analysis (CCK-8, 72 h); assay type: cell-based; conditions: Homo sapiens, ASPC1; read-out: Cell growth inhibition GI50 AsPC-1
Protocol: as §2, §3, §4

DLD-1 = assay: Cell line inhibition analysis (CCK-8, 72 h); assay type: cell-based; conditions: Homo sapiens, read-out: Cell growth inhibition GI50 DLD-1
Protocol: as §2, §3, §4

HCI-H460 = assay: Cell line inhibition analysis (CCK-8, 72 h); assay type: cell-based; conditions: read-out: Cell growth inhibition GI50 HCI-H460
Protocol: as §2, §3, §4

HCT-116 = assay: Cell line inhibition analysis (CCK-8, 72 h); assay type: cell-based; conditions: Homo sapiens, read-out: Cell growth inhibition GI50 HCT-116
Protocol: as §2, §3, §4

HT-29 = assay: Cell line inhibition analysis (CCK-8, 72 h); assay type: cell-based; conditions: Homo sapiens, read-out: Cell growth inhibition GI50 HT-29
Protocol: as §2, §3, §4

MDA-MB-231 = assay: Cell line inhibition analysis (CCK-8, 72 h); assay type: cell-based; conditions: Homo sapiens, read-out: Cell growth inhibition GI50 MDA-MB-231
Protocol: as §2, §3, §4

MIA-Paca-2 = assay: Cell line inhibition analysis (CCK-8, 72 h); assay type: cell-based; conditions: Homo sapiens, read-out: Cell growth inhibition GI50 MIA-Paca-2
Protocol: as §2, §3, §4

SKOV3 = assay: Cell line inhibition analysis (CCK-8, 72 h); assay type: cell-based; conditions: Homo sapiens, SK-OV-3; read-out: Cell growth inhibition GI50 SKOV3
Protocol: as §2, §3, §4

SW480 = assay: Cell line inhibition analysis (CCK-8, 72 h); assay type: cell-based; conditions: Homo sapiens, read-out: Cell growth inhibition GI50 SW480
Protocol: as §2, §3, §4

SW620 = assay: Cell line inhibition analysis (CCK-8, 72 h); assay type: cell-based; conditions: Homo sapiens, SW-620; read-out: Cell growth inhibition GI50 SW620
Protocol: as §2, §3, §4

CDK2/CYCLIN E2 = CDK2/CYCLIN E2 (Homo sapiens, UniProt P24941); assay: Kinase panel; assay type: biochemical; conditions: CDK2/cyclin E2, 1 µM; read-out: residual enzyme activity
Protocol: (§5) To measure the inhibitory activity of protein kinases against the compounds of the present invention, a biochemical assay was performed using a full kinase panel. The inhibitory efficacy of kinases was measured when Example compounds 8 and 51 were treated at a single concentration of 1 µM, and residual enzyme activity values were calculated. Kinases were identified when the calculated residual enzyme activity values were 40% or less, i.e., inhibited by 60% or more.

ERK7/MAPK15 = ERK7/MAPK15 (Homo sapiens, UniProt Q8TD08); assay: Kinase panel; assay type: biochemical; conditions: ERK7/MAPK15, 1 µM; read-out: residual enzyme activity
ERK7/MAPK15, sequence (Q8TD08 whole entry): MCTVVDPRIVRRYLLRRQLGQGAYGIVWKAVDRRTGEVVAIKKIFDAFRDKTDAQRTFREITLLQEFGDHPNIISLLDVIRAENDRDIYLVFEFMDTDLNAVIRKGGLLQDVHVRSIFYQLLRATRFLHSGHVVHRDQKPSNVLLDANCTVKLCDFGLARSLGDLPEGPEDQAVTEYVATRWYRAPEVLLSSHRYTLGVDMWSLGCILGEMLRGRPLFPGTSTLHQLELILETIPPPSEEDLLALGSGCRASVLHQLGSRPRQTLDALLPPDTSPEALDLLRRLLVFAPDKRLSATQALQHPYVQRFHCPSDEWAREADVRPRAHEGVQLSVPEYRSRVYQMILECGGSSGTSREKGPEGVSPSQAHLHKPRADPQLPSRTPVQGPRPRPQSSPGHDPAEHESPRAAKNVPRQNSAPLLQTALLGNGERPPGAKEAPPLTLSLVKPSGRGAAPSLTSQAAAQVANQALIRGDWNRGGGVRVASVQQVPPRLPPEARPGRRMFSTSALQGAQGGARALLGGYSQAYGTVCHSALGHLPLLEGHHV
Protocol: as §5

MNK1 = MNK1 (Homo sapiens, UniProt Q9BUB5); assay: Kinase panel; assay type: biochemical; conditions: MNK1, 1 µM; read-out: residual enzyme activity
MNK1, sequence (Q9BUB5 whole entry, species assumed): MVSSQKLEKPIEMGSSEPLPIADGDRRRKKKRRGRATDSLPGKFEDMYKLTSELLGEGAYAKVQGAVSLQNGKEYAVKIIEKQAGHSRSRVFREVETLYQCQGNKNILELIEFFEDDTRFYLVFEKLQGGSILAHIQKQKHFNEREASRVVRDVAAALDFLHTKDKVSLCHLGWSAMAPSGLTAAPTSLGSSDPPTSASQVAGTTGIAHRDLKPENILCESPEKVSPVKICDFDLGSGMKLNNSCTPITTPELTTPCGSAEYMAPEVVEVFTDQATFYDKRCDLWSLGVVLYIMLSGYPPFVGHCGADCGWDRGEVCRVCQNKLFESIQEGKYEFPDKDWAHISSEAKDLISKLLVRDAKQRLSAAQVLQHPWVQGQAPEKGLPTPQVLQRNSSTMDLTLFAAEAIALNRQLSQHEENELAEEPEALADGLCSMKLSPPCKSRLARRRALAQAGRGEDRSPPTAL
Protocol: as §5

PRKX = PRKX (Homo sapiens, UniProt P51817); assay: Kinase panel; assay type: biochemical; conditions: read-out: residual enzyme activity
PRKX, sequence (P51817 whole entry, species assumed): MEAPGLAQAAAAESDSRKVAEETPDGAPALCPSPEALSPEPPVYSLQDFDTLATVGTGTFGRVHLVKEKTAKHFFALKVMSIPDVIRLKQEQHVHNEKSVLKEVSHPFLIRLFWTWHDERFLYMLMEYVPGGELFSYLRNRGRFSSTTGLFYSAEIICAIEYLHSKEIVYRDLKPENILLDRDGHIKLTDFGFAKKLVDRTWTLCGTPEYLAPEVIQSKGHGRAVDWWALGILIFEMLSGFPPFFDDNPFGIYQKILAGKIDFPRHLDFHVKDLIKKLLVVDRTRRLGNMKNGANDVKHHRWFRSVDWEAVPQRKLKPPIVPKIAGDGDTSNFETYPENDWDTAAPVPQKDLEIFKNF
Protocol: as §5

TAK1 = TAK1 (Homo sapiens, UniProt O43318); assay: Kinase panel; assay type: biochemical; conditions: TAK1, 1 µM; read-out: residual enzyme activity
TAK1, sequence (O43318 1-303 limits assumed): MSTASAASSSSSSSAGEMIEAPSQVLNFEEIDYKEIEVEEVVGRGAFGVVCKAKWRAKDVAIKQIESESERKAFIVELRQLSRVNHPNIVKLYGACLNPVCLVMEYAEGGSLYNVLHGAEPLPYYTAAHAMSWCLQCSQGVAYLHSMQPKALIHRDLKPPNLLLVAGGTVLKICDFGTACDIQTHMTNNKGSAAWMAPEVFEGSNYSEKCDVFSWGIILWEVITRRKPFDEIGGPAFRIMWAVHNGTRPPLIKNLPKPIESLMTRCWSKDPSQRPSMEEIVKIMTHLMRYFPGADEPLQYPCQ
Protocol: as §5

T1 sequence (Q07912 whole entry): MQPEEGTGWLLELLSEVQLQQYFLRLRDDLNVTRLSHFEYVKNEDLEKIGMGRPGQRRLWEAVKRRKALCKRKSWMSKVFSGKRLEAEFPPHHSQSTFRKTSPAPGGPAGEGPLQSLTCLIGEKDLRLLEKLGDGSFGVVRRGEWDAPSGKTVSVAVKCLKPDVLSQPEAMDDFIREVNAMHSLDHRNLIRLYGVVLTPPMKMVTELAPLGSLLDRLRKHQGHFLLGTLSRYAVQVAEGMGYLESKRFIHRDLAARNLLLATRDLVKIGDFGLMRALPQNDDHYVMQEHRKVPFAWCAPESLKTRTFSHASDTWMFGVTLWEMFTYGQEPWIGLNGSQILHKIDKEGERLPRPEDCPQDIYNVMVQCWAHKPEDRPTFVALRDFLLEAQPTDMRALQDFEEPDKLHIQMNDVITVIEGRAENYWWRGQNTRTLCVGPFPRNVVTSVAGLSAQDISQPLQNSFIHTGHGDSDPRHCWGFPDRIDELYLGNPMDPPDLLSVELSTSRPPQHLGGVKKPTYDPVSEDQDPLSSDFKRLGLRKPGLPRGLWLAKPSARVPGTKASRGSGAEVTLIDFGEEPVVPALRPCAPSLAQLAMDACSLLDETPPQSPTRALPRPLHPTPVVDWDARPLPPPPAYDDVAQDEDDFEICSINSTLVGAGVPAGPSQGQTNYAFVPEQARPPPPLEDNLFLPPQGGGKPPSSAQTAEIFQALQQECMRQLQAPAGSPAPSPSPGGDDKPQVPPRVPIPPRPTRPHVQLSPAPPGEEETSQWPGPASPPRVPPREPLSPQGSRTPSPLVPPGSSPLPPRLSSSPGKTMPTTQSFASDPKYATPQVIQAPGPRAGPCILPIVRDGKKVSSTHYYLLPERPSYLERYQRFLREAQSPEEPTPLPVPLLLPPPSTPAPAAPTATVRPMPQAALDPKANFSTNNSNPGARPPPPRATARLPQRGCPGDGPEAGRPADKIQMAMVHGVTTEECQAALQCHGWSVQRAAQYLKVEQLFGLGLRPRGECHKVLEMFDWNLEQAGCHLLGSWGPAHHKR

SMILES | IC50 (ACK1) [µM] | IC50 (BMX) [µM] | IC50 (Src) [µM] | GI50 (A172) [µM] | GI50 (A549) [µM] | GI50 (AsPC-1) [µM] | GI50 (DLD-1) [µM] | GI50 (HCI-H460) [µM] | GI50 (HCT-116) [µM] | GI50 (HT-29) [µM] | GI50 (MDA-MB-231) [µM] | GI50 (MIA-Paca-2) [µM] | GI50 (SKOV3) [µM] | GI50 (SW480) [µM] | GI50 (SW620) [µM] | remaining activity at 1 µM (CDK2/CYCLIN E2) [%] | remaining activity at 1 µM (ERK7/MAPK15) [%] | remaining activity at 1 µM (MNK1) [%] | remaining activity at 1 µM (PRKX) [%] | remaining activity at 1 µM (TAK1) [%]
Cc1ccc(Nc2ncc3c(n2)C2(CC2)C(=O)N(c2cc(NC(=O)c4cccc(C(F)(F)F)c4)ccc2C)C3)cn1 [Compound 51, N-(4-methyl-3-(2'-((6-methylpyridin-3-yl)amino)-7'-oxo-5'H-spiro[cyclopropane-1,8'-pyrido[4,3-d]pyrimidine]-6'(7'H)-yl)phenyl)-3-(trifluoromethyl)benzamide] | 0.01 to 0.1 | < 0.01 | < 0.01 | < 1 | 1 to 5 | < 1 | 1 to 5 | < 1 | < 1 | 1 to 5 | < 1 | < 1 | < 1 | < 1 | 1 to 5 | > 40 | > 40 | > 40 | > 40 | ≤ 40
Cc1cn(-c2cc(C(=O)Nc3ccc(C)c(N4Cc5cnc(NC6CC6)nc5C5(CC5)C4=O)c3)cc(C(F)(F)F)c2)cn1 [Compound 8, N-(3-(2'-(cyclopropylamino)-7'-oxo-5'H-spiro[cyclopropane-1,8'-pyrido[4,3-d]pyrimidine]-6'(7'H)-yl)-4-methylphenyl)-3-(4-methyl-1H-imidazol-1-yl)-5-(trifluoromethyl)benzamide] | < 0.01 | < 0.01 | 0.01 to 0.1 | < 1 | > 10 | 1 to 5 | 1 to 5 | 1 to 5 | < 1 | > 10 | 1 to 5 | < 1 | 1 to 5 | 1 to 5 | 1 to 5 | > 40 | > 40 | > 40 | > 40 | ≤ 40
